Source: EP1964562A1, “PHARMACEUTICAL COMPOSITIONS CONTAINING DERIVATIVE SUBSTANCES OF THIAZOLIDINEDIONES COMBINED WITH A BIGUANIDE FOR USE IN TYPE 2 DIABETES MELLITUS” (priority 2005, dated 2007)
Like-named read-outs stand apart in the source and are kept apart here.

Legend:
[1] = system: hepatic pioglitazone metabolism; details: in vitro, molar concentration equal to pioglitazone; cited from earlier work
lipid metabolism = details: therapeutic doses, short and long term clinical studies; cited from earlier work
[2] = cited from earlier work
[3] = system: individuals diagnosed with DM2 and obesity; experiment: Example 1: multicentric, randomized, double blind placebo-controlled trial, 8 weeks; format: in vivo, patients
Protocol: A multicentric, randomized, double blind placebo-controlled trial was conducted. In which 600 individuals diagnosed with DM2 and obesity with a BMI higher than 35 kg/m^2 were included.

[4] = system: patients diagnosed with DM2 and obesity; experiment: Example 2: multicentric, randomized, double blind placebo-controlled trial, 12 weeks; format: in vivo; details: compared to levels at admission
Protocol: A multicentric, randomized, double blind placebo-controlled trial was conducted. In which 300 patients diagnosed with DM2 and obesity were included. The object of the study was to establish the reduction in lipid profile and in overweight.

[5] = biological target: T1, serum proteins, particularly serum albumin (Homo sapiens, UniProt P02768); details: serum albumin; cited from earlier work
T1 construct: host or cells: serum
T1 sequence (P02768 25-609): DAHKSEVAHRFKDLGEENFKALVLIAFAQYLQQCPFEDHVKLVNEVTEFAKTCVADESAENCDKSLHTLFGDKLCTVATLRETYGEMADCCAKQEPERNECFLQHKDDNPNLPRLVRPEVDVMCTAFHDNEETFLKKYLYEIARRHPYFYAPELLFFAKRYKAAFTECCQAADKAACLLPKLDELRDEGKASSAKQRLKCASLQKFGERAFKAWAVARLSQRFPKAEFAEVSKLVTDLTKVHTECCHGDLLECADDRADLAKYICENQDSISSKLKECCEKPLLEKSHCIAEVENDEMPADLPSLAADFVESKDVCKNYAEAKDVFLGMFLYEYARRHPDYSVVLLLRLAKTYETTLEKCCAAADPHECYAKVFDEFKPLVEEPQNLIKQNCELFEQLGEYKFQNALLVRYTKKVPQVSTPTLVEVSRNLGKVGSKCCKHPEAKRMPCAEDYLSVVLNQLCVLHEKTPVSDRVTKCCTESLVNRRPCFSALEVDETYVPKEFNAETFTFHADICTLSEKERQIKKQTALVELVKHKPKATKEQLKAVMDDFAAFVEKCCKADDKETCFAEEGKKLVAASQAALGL

[6] = system: animal models of diabetes; details: animal models of type 2 diabetes; cited from earlier work
[7] = system: serum proteins, particularly serum albumin; details: human; cited from earlier work
P-450 activity = details: incubated with human P-450 liver microsomes; cited from earlier work
[8] = cited from earlier work; remark: listed apart in the source

Compound: CC(=O)N1CCN(c2ccc(OCC3COC(Cn4ccnc4)(c4ccc(Cl)cc4Cl)O3)cc2)CC1 (centres unmarked) [Ketoconazole]
- inhibition of hepatic pioglitazone metabolism [1]: up to 85%

Compound: CN(C)C(=N)N=C(N)N [metformin, Metformin]
- total cholesterol, LDL cholesterol and triglyceride levels (lipid metabolism): reduces
- increase of Tmax by food ([2]; dose of 850 mg, with food): 0.583 h
- Tmax ([2]; human, in vivo, po): 2.5 h
- maximum plasma concentration ([2]; human, in vivo, po): ≤ 4 µg/mL
- non-absorbed fraction recovered in the feces ([2]; human, in vivo, po): 20-30%
- steady-state plasma concentrations ([2]; human, in vivo, po): less than 1 µg/ml
- maximum plasma concentration ([2]; human, plasma, po): 1.5 µg/mL
- plasma concentrations in cases of lactacidosis ([2]; in vivo): exceed 5 µg/ml
- patients' weight change [3]: increased
- reduction in triglycerides [4]: no significant reduction

Compound: CC(=O)c1ccc(CCOc2ccc(CC3SC(=O)NC3=O)cc2)nc1 (centres unmarked) [M-III]
- bound to serum albumin [5]: > 98%
- pharmacological activity [6]: pharmacologically active

Compound: CCc1ccc(CCOc2ccc(CC3SC(=O)NC3=O)cc2)nc1 (centres unmarked) [pioglitazone, Pioglitazone]
- bound to serum proteins [7]: > 99%
- inhibition of P-450 activity (P-450 activity): did not inhibit
- apparent clearance, CL/F ([8]; calculated): 5 to 7 L/h
- mean serum half-live ([8]; human, serum): 3 to 7 h
- renal elimination ([8]; in vivo): negligible
- time to reach steady-state serum concentrations ([8]; in vivo): ≤ 7 days
- time to maximum concentrations ([8]; oral administration at fasting): ≤ 2 h
- time until measurable in serum ([8]; oral administration at fasting): ≤ 30 min

Compound: CC(O)c1ccc(CCOc2ccc(CC3SC(=O)NC3=O)cc2)nc1 (centres unmarked) [M-IV]
- bound to serum albumin [5]: > 98%
- pharmacological activity [6]: pharmacologically active
